Measurements from patent publication US10654896B2, “FoxP3-binding peptides and uses thereof” (FUNDACIÓN PARA LA INVESTIGACIÓN MÉDICA APLICADA, priority 2016, dated 2020).
Where a SMILES comes first, the peptide text is derived from it. [ ]: non-standard residue; d: D form.

Key:
[1] = Mouse liver microsomal stability; type: in vitro ADME; conditions: mouse liver microsomes; for remaining at 20 min, 1 μM: read-out: % Remaining after 20 min; for remaining at 1 h, 1 μM: 60 min, read-out: % Remaining after 60 min; for half-life: peptide 1 μM
Description: (§1) The data collected were analyzed to calculate a half-life (t1/2, min) for tested peptides at a final concentration of 1 μM. Briefly, 5 μL of stock solution of tested peptide (10 mM) were diluted in 495 μL of 1:1 Methanol/Water (final concentration of 100 μM, 50% MeOH). Then, 50 μL of this intermediate solution were diluted in 450 μL of 100 mM potassium phosphate buffer to a concentration of 10 μM (working solution, 5% MeOH). The NADPH regenerating system contains β-Nicotinamide adenine dinucleotide phosphate (Sigma, Cat. # N0505), Isocitric acid (Sigma, Cat. #11252) and Isocitric dehydrogenase (Sigma, Cat. #12002) at a final concentration of 1 unit/mL at incubation.
(§2) Human liver microsomes were obtained from BD Gentest (Cat. #452117) and mouse liver microsomes from Xenotech (Cat. # M1000), to a final concentration of 0.7 mg protein/mL. A volume of 10 μL of peptide solution and 80 μL of microsome solution were added to a 96-well plate and incubated for 10 min at 37° C. The reaction was started by the addition of 10 μL of NADPH regenerating system and stopped by the addition of 300 μL of stop solution (ACN at 4° C., including 100 ng/mL Tolbutamide and 100 ng/mL of Labetalol as internal standard) at different incubation times (0, 5, 10, 20, 30 and 60 min). Concentrations of test compound were quantified by LC-MS/MS methodologies (Shimadzu LC 20-AD/API4000) using peak area ratio of analyte/internal standard and the percent loss of parent compound was calculated under each time point to determine the half-life.

[2] = Human liver microsomal stability; type: in vitro ADME; conditions: for remaining at 20 min, 1 μM: read-out: % Remaining after 20 min; for remaining at 1 h, 1 μM: 60 min, read-out: % Remaining after 60 min
Description: as §1, §2

[3] = target: T1, FOXP3/Runx1 heterodimerization (Homo sapiens, UniProt Q9BZS1); assay: FOXP3/Runx1 heterodimerization inhibition (Alphascreen); type: biochemical; conditions: peptide 100 μM
T1 construct: made in house; host or cells: E. coli BL21 (DE3)
T1 sequence (Q9BZS1 1-431): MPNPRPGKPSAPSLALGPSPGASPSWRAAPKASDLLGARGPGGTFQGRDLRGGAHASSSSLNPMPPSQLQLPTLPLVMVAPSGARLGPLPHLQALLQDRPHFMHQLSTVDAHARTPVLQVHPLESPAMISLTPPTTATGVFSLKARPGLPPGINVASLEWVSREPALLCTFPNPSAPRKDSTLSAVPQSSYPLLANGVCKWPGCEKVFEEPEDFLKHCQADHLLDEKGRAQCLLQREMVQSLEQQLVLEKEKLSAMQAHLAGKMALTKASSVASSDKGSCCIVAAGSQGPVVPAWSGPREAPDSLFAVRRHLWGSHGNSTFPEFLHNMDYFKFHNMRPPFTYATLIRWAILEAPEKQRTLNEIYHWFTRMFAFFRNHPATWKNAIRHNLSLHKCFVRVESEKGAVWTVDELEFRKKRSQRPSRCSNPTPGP
From the text: (§3) Plasmid pET20b FOXP3-His was generated to produce the human FOXP3 tagged with 6 histidines at the C terminus of the protein. Briefly, plasmid pDEST15-FOXP3 (provided by Dr. Casal, Madrid, Spain) was used as template to amplify FOXP3 by PCR using the primers Upper FOXP3 Ndel catatgcccaaccccaggc (SEQ ID NO: 55) and Lower FOXP3 […] (SEQ ID NO: 56). The resulting fragment was subcloned in pET20b at Ndel and NotI sites. pET45b His-Runx1 was obtained by PCR of activated human CD4 T cells obtained from healthy volunteers (after the signature of an informed consent) using the primers Upper Runx1 atgcgtatccccgtagatg (SEQ ID NO: 57) and Lower Runx1 […] (SEQ ID NO: 58) and the fragment was cloned in pcDNA3.1. Then, pET45b and pcDNA3.1-Runx1 were digested with BamHI and NotI and ligated to obtain pET45b-Runx1. Plasmids were used to transform BL21 cells (DE3; Novagen, Schwalbach, Germany) for the expression of the recombinant protein. The transformed BL21 cells were grown in LB medium at 37° C. (1 liter of final culture medium) (with ampicilin 0.1 mg/ml). Once the OD of the culture was between 0.5 and 1.0, IPTG (0.4 mM, final concentration) was added. Bacteria were then cultured overnight in agitation and centrifuged for 10 min at 8000 rpm. Cell pellet was then resuspended in 4 ml Tris-HCl 0.1 M and frozen at −80° C. Cell pellet was then thawed and incubated with lisozyme (25 KU) and a protease inhibitor cocktail for 15 min at 30° C. before cell lysis induced with a French-press. The resultant pool was then centrifuged during 20 min at 11.000 rpm). The recombinant protein was purified from the soluble fraction of French-press cell extracts by affinity chromatography (Histrap, Pharmacia) following manufacturer's instructions and using an FPLC platform (AKTA, Pharmacia). Plasmid pDEST15-FOXP3 encoding the fusion protein GST-FOXP3 (GST fused to the isoform A from human FOXP3 gene), was transformed into BL21 cells for the expression of the recombinant protein. GST-FOXP3 protein was purified from the soluble fraction of cell extracts obtained, as described above, by affinity chromatography (GSTrap; Amersham, Piscataway, N.J.) using a fast protein liquid chromatography platform (AKTA; Amersham) following manufacturer's instructions. The eluted proteins were desalted using Hitrap desalting columns (Pharmacia) and analyzed by SDS-PAGE using Coomassie blue (Bio-Safe Coomassie reagent; Bio-Rad, Hercules, Calif.) and by Western blot.
It has been described that dimerization of FOXP3 is required for its function as a transcriptional regulator. Moreover, interaction between FOXP3 and the transcription factor Runx1, is crucially required for normal hematopoiesis including thymic T-cell development, but also for Treg suppressor activity (Reviewed in Lozano et al, Front Oncol. 2013, 3:294). Both activities are mediated by the intermediate region of Foxp3, which is the area of interaction between P60 and Foxp3. Thus, we studied the effect of P60 and their mutants on the FOXP3/Runx1 heterodimerization, as well as FOXP3/FOXP3 homodimerization by Alphascreen technology according to the manufacturer's instructions (Perkin Elmer, Benelux). AlphaScreen™ is a bead-based technology that is designed to measure the proximity of donor and acceptor beads conjugated to biomolecules of interest.
To measure Foxp3-Runx1 interactions, Foxp3-GST and […] proteins were used.
Recombinant Runx1 expressed in E. Coli with a hexa-histidine tag (obtained as disclosed in section (1) above) was captured by nickel chelate acceptor beads following manufacturer's instructions, whereas the recombinant FOXP3 expressed with a GST tag was captured by glutathione donor beads (Perkin Elmer) following manufacturer's instructions. His-tagged Runx1 (46 nM final concentration) was incubated with 100 nM GST-FOXP3 and the peptides to be tested (added at different concentrations from 1 to 100 μM) for 1 h at room temperature. […]

human FOXP3 (FOXP3-6His) = target: T2, human FOXP3 (FOXP3-6His) (Homo sapiens, UniProt Q9BZS1); assay: Peptide binding to FOXP3 by surface plasmon resonance (SPR); conditions: peptides 1-20 μM; ratio to p60 (SEQ ID NO: 1)
T2 construct: 6xHis (C); made in house; host or cells: E. coli BL21 (DE3)
T2 sequence (Q9BZS1 1-431): T1 sequence (Q9BZS1 1-431)
From the text: as §3
Screening of peptide binding to FOXP3 was performed by surface plasmon resonance (SPR) using ProteOn XPR36 (Bio-Rad, Hercules Calif., USA) optical biosensor. Recombinant protein FOXP3-6His was produced and purified from E. coli as disclosed in previous section and was immobilized covalently onto a GLM sensor chip (176-5012, Bio-Rad) using sulfo-NHS and EDC (Bio-Rad) coupling reagents and the manufacturer's instructions. After protein immobilization, chip surface was treated with ethanolamine to deactivate the excess of reactive esters.
Individual solutions of the peptides to be tested (1-20 μM) were injected by triplicate in running buffer (Phosphate buffered saline, 0.005% (v/v) Tween 20, pH 7.4) at a flow of 30 μl/min. The interspot signal (obtained in the chip surface not immobilized with protein) was used as reference. The results are summarized in Table 6 below as the ratio Peptide of the invention/p60.

[4] = human liver microsomes, peptide 1 μM, read-out: t1/2

Row | Compound | remaining at 20 min, 1 μM [1] | remaining at 1 h, 1 μM [1] | half-life [1] | remaining at 20 min, 1 μM ([2]; human liver microsomes) | remaining at 1 h, 1 μM ([2]; human liver microsomes) | half-life [2, 4] | half-life ([2]; human, microsomes) | Foxp3-Runx1 Inhibition % inhibition (100 μM) [3] | Binding to Foxp3 Ratio binding Peptide/p60 (fold change) (human FOXP3 (FOXP3-6His))
1 | CSCC[C@@H]1NC(=O)[C@H](C)NC(=O)[C@H](Cc2ccccc2)NC(=O)[C@H](Cc2ccccc2)NC(=O)[C@@H]2CCCN2C(=O)[C@H](Cc2c[nH]c3ccccc23)NC(=O)[C@H](CCSC)NC(=O)[C@H](CCCCN)NC(=O)[C@H](CCCNC(=N)N)NC(=O)[C@H](Cc2ccccc2)NC(=O)[C@H](C)NC(=O)[C@H](CCC(N)=O)NC(=O)[C@H](Cc2ccccc2)NC(=O)[C@@H](C)NC(=O)[C@H](CCCNC(=N)N)NCCOCCNC1=O [compound 54] | 97.3% | 30.1% | 30.9 min | 55.7% | 11% | 18.4 min |  |  | 
2 | CSCC[C@@H]1NC(=O)[C@H](C)NC(=O)[C@H](Cc2ccccc2)NC(=O)[C@H](Cc2ccccc2)NC(=O)[C@@H]2CCCN2C(=O)[C@H](Cc2c[nH]c3ccccc23)NC(=O)[C@H](CCSC)NC(=O)[C@H](CCCCN)NC(=O)[C@H](CCCNC(=N)N)NC(=O)[C@H](Cc2ccccc2)NC(=O)[C@H](C)NC(=O)[C@H](CCC(N)=O)NC(=O)[C@H](Cc2ccccc2)NC(=O)[C@@H](C)NC(=O)[C@H](CCCNC(=N)N)NC1=O [compound 51] (cyclo(R[dA]FQAFRKMWPFFAM)) | 62.7% | 47.7% | 63.8 min | 48.7% | 46.1% | 61.7 min |  |  | 
3 | CSCC[C@@H]1NC(=O)[C@H](C)NC(=O)[C@H](Cc2ccccc2)NC(=O)[C@H](Cc2ccccc2)NC(=O)[C@@H]2CCCN2C(=O)[C@H](Cc2c[nH]c3ccccc23)NC(=O)[C@H](CCSC)NC(=O)[C@H](CCCCN)NC(=O)[C@H](CCCNC(=N)N)NC(=O)[C@H](Cc2ccccc2)NC(=O)[C@H](C)NC(=O)[C@H](CCC(N)=O)NC(=O)[C@H](Cc2ccccc2)NC(=O)[C@@H](C)NC(=O)[C@H](CCCNC(=N)N)NCCNC(=O)CNC1=O [compound 53] | 57% | 3.7% | 12.3 min | 32.9% | 2.8% |  | 11.1 min |  | 
4 | 15 (RDAQSFRKMWPFFAM) [compound 15] |  |  |  |  |  |  |  | 55.6% | 1.1 fold change
